Holding throughout (type): cell-based, human
Series [1] concerns IL-8. The series is described as follows: IL-8 release by TNFα-stimulated HUVECs, ELISA. Conditions: 10 ng/ml TNFα + 10 μM; 18 hours; TNFα + water 35572. The method, then: Passage 4 HUVECs, human source lot number 8710 (obtained from ATCC), were put into the wells of a 24-well tissue culture plate at 5,000 cells/well in EGM-2 medium (obtained from Cambrex) and cultured for 72 hours at 37° C. and 5% CO2. […] After incubation for 1 hour at 37° C. and 5% CO2, TNFα (obtained from Pierce) was added to give a final concentration of 10 ng/ml, and the cells were incubated for an additional 18 hours at 37° C. and 5% CO2. After this incubation, the supernatants were collected, and the amount of IL-8 in the supernatants determined by ELISA as described in Example 4.
For orientation: In an ELISA, binding on a coated surface is turned into a signal by an enzyme label.

Series [2] deals with c-Jun. The series is described as follows: c-Jun in VEGF-treated HUVECs, TransAM AP-1 assay. Conditions: VEGF 10 ng/ml + 10 μM, control 0.204, VEGF only 0.261. The method, then: The flasks were incubated overnight at 37° C., 5% CO2 After this incubation, vascular endothelial growth factor (VEGF) (obtained from Sigma) was added to give a final concentration 10 ng/ml, and the flasks were incubated for an additional 30 minutes.
The amount of c-Jun was determined using a TransAM™ AP-1 Family Transcription Factor Assay Kit and a Nuclear Extract Kit from Active Motif North America, Carlsbad, Calif., according to manufacturer's instructions. Briefly, a nuclear extract of the cells was prepared using the Nuclear Extract Kit. Then, the nuclear extract was added to the wells of a 96-well plate in which oligonucleotide containing a TPA-responsive element (TRE) was immobilized. Activator protein-1 (AP-1) dimers contained in the nuclear extract were bound to this oligonucleotide and were detected using an antibody specific for c-Jun. A secondary antibody conjugated to horseradish peroxidase (HRP) was next added to provide a colorimetric readout that was quantified by spectrophotometry (measurement at 450 nm).

In series [3] the test system is NFκB. The series is described as follows: Activated NFκB in VEGF-treated HUVECs, TransAM assay. Conditions: VEGF 10 ng/ml + 10 μM, control 0.070, VEGF only 0.111. The method, then: Passage 5 HUVECs, human source lot number 8750 (obtained from ATCC), were grown to confluence in 25 cm^2 flasks in EGM-2 medium. The following additives were added to the flasks (total volume of 5 ml/flask) in EGM-2 medium containing 2% FCS, GA1000 (gentamycin), heparin and ascorbic acid (all from Cambrex): 1 μg/ml of the compound of formula II (Cpd II); 5 μg/ml Cpd II; 15 μg/ml of Cpd II; 15 μg/ml methylphenidate (MP); or 10 μM LY 294002. The flasks were incubated overnight at 37° C., 5% CO2 After this incubation, vascular endothelial growth factor (VEGF) (obtained from Sigma) was added to give a final concentration 10 ng/ml, and the flasks were incubated for an additional 30 minutes.
(§1) Then, the amount of NFκB was determined using a TransAM™ NFκB p65/NFκB p50 Transcription Factor Assay Kit and a Nuclear Extract Kit from Active Motif North America, Carlsbad, Calif., according to the manufacturer's instructions. Briefly, a nuclear extract of the cells was prepared using the Nuclear Extract Kit. Then, the nuclear extract was added to the wells of the 96-well plate of the TransAM™ kit. Oligonucleotide containing an NFκB consensus binding site was immobilized in the wells, and the activated NFκB contained in the nuclear extract was bound to the oligonucleotide. Then, an antibody directed against the NFκB p65 or p50 subunit was added, and the NFκB complex bound to the oligonucleotide was detected. A secondary antibody conjugated to horseradish peroxidase (HRP) was next added to provide a colorimetric readout that was quantified by spectrophotometry (measurement at 450 nm).

The subject of series [4] is NFκB. The series is described as follows: Activated NFκB in TNFα- or VEGF-treated HIAECs, TransAM assay. Conditions: TNFα + LY 294002, control 0.174, TNFα only 0.881. The method, then: as §1
Passage 8 (human iliac artery endothelial cells (HIAECs) (obtained from ATCC; catalog no. CC-2545) were grown to confluence in 25 cm^2 flasks in EGM-2 medium. Eighteen hours prior to the experiment, the medium was replaced with EGM-2 medium containing 0.1% FCS plus heparin, GA1000 (gentamycin) and bovine pituitary extract (all from Cambrex) to place the cells in a resting state. To perform the experiment the medium was aspirated from the flasks, and the following additives were added to the flasks in fresh medium (total volume of 5 ml/flask): 15 μg/ml of the compound of formula II (Cpd II) or 10 μM LY 294002. The flasks were incubated 2 hours at 37° C., 5% CO2 After this incubation, VEGF or TNFα was added to give a final concentration 10 ng/ml, and the flasks were incubated for an additional 30 minutes. Then, the amount of NFκB was determined using a TransAM™ NFκB p65/NFκB p50 Transcription Factor Assay Kit and a Nuclear Extract Kit from Active Motif North America, Carlsbad, Calif., as described in Example 9.

Series [5] relates to TNFα. The series is described as follows: TNFα release from LPS-stimulated THP-1 monocytes, ELISA. Conditions: THP-1, LPS 200 ng/ml, 24 hours; Cpd II 15 μg/ml, Dex 10 μM; LPS alone 138.655. The method, then: (§2) THP-1 is a monocyte cell line obtained from American Type Culture Collection (ATCC) (catalog no. TIB-202). […] After 1 hour, lipopolysaccharide (LPS) (obtained from Sigma) was added to the cultures to give a final concentration of 200 ng/ml, and the cells were then incubated for an additional 4 hours or for an additional 24 hours. After the incubation, the cells were centrifuged, and the supernatants were collected. The concentrations of IL-8 and TNFα in the supernatants were determined by ELISA.
The TNFα ELISA was performed as described in Example 2.

Series [6] has as its system TCR-positive cells. The series is described as follows: Annexin staining of TCR-positive PBL, flow cytometry (cell death). Conditions: PHA 5 μg/ml plus 10 μM dexamethasone; printed as decreased from 84%. The method, then:
After this incubation, PHA was added to give a final concentration of 5 μg/ml, and the cells were incubated for an additional 72 hours at 37° C., 5% CO2. All cultures were performed in triplicate. Cells were then removed by centrifugation at 1000 rpm for 10 minutes.
The cells were further analyzed by flow cytometry. Annexin was used to determine populations of dead or dying cells. Anti-CD69 antibody was used to establish the level of cellular activation. Antibody to T-cell receptor αβ (TCR) was also used. Recombinant Annexin 5 (PE and FITC conjugates) and the antibodies were all purchase from Caltag (Burlingham, Calif.) and used following the manufacturer's recommendations.
(In flow cytometry, cells or beads pass a laser one at a time.)

Series [7] concerns IL-8. The series is described as follows: IL-8 release from LPS-stimulated THP-1 monocytes, ELISA. Conditions: THP-1, LPS 200 ng/ml, Cpd II 15 μg/ml, Dex 10 μM. The method, then: as §2
The concentrations of IL-8 in the supernatants were determined by ELISA performed as described in Example 4.

Regarding `O=c1cc(N2CCOCC2)oc2c(-c3ccccc3)cccc12` [LY 294002, reference compound], in series [1], the “Mean IL-8” value is 9196.1 ± 150.97 pg/mL. Besides, the “Mean OD 450 nm (c-Jun)” value in series [2] came out at 0.340 ± 0.020. For the same compound, the “Mean OD 450 nm (NFκB)” value in series [3] stood at 0.138 ± 0.008; in series [4], 0.810 ± 0.007.
Turning to `C[C@@H]1C[C@H]2[C@@H]3CCC4=CC(=O)C=C[C@]4(C)[C@@]3(F)[C@@H](O)C[C@]2(C)[C@@]1(O)C(=O)CO` [dexamethasone, reference compound], the “Mean TNFα Concentration” value in series [5] is 94.759 ± 8.755 pg/mL. The “Annexin staining of TCR-positive cells” value in series [6] is recorded as 48%. Further, the “% Inhibition (IL-8)” value in series [7] (4 hours) came to 26%; in series [7] (24 hours) it was 66%. Besides, the “Mean IL-8 Concentration” value in series [7] (24 hours, LPS alone 6653.20) is 2300.00 ± 283.41 pg/mL.

For the origin of these results see US20060183773A1, “Uses of methylphenidate derivatives” (priority 2005, published 2006).
